The structures appear in SMILES notation.

In general, Ki refers to a dissociation constant, usually derived from enzyme kinetics or from competition with a known ligand.

The assay deals with Mcl-1 protein (UniProtKB Q07820) (Homo sapiens (Human), UniProt Q07820). As to the kind of experiment: Inhibition of Mcl-1 by the fluorescence polarisation assay (Example A, Method A). In kind it is binding. Conditions: fluorescence polarization assay. In short, it runs like this: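 Protein (5 nM) and fluorescein-tagged peptide tracer (1 nM) incubated with 11-point compound series for 2 h at room temperature in HEPES/NaCl/Tween 20 buffer, pH 7.4, 5% DMSO. Displacement read as decrease in polarisation; IC50 fitted by 4-parameter logistic, converted to Ki (cKi or eKi).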
Chain of Mcl-1 protein (Q07820 whole entry): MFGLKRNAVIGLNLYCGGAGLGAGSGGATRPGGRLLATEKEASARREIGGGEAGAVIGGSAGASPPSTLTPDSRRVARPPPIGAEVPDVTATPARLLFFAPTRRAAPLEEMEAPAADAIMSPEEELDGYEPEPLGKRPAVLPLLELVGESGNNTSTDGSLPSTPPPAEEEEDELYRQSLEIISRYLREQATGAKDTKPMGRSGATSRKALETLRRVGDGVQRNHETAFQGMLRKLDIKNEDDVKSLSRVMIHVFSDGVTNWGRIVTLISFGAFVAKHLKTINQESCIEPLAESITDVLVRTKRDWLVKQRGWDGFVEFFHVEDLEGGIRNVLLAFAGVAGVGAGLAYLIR
Background: In fluorescence polarisation assays a small probe gives low polarisation when free and higher when bound to something large.
On to `COc1ccc(C2=Cc3ccccc3[C@]23CC[C@@](Nc2cccc(Cl)c2)(C(=O)O)CC3)c(Cl)c1` [Example 251, (1s,4s)-4-(3-chloroanilino)-2′-(2-chloro-4-methoxyphenyl)spiro[cyclohexane-1,1′-indene]-4-carboxylic acid], for which the Ki was determined as 1.69 µM. `COc1ccc(C)c(C2=Cc3ccccc3[C@]23CC[C@@](Nc2cccc(Cl)c2)(C(=O)O)CC3)c1` [Example 252, (1s,4s)-4-(3-chloroanilino)-2′-(5-methoxy-2-methylphenyl)spiro[cyclohexane-1,1′-indene]-4-carboxylic acid]: the Ki was determined as 5.27 µM. With `COc1cccc(C2=Cc3ccccc3[C@]23CC[C@@](Nc2cccc(Cl)c2)(C(=O)O)CC3)c1` [Example 253, (1s,4s)-4-(3-chloroanilino)-2′-(3-methoxyphenyl)spiro[cyclohexane-1,1′-indene]-4-carboxylic acid] the figure was 0.836 µM. For the compound `Cn1ccc2cc(C3=Cc4ccccc4[C@]34CC[C@@](Nc3cccc(Cl)c3)(C(=O)O)CC4)ccc21` [Example 264, (1s,4s)-4-(3-chloroanilino)-2′-(1-methyl-1H-indol-5-yl)spiro[cyclohexane-1,1′-indene]-4-carboxylic acid], the inhibition constant Ki was determined as 1.75 µM.

For `O=C(O)[C@]1(Nc2cccc(Cl)c2)CC[C@]2(CC1)C(c1ccc3ccoc3c1)=Cc1ccccc12` [Example 265, (1s,4s)-2′-(1-benzofuran-6-yl)-4-(3-chloroanilino)spiro[cyclohexane-1,1′-indene]-4-carboxylic acid], the Ki stood at 1.1 µM.

Consider `O=C(O)[C@]1(Nc2cccc(Cl)c2)CC[C@]2(CC1)C(c1cccc3ccoc13)=Cc1ccccc12` [Example 266, (1s,4s)-2′-(1-benzofuran-7-yl)-4-(3-chloroanilino)spiro[cyclohexane-1,1′-indene]-4-carboxylic acid], for which the Ki amounted to 0.593 µM. Consider `COc1cccc(C2=Cc3ccccc3[C@]23CC[C@@](Nc2cccc(Cl)c2)(C(=O)O)CC3)c1Cl` [Example 267, (1s,4s)-4-(3-chloroanilino)-2′-(2-chloro-3-methoxyphenyl)spiro[cyclohexane-1,1′-indene]-4-carboxylic acid], for which the Ki was 0.259 µM. With `Cn1ccc2cc(C3Cc4ccccc4[C@]34CC[C@@](Nc3cccc(Cl)c3)(C(=O)O)CC4)ccc21` (stereo partly shown) [Example 274, (1r,4r)-4-(3-chloroanilino)-2′-(1-methyl-1H-indol-5-yl)-2′,3′-dihydrospiro[cyclohexane-1,1′-indene]-4-carboxylic acid], the Ki was determined as 4.69 µM. On to `O=C(O)[C@]1(Nc2cccc(Cl)c2)CC[C@]2(CC1)C(C1=CCCCC1)=Cc1ccccc12` [Example 275, (1r,4r)-4-(3-chloroanilino)-2′-(cyclohex-1-en-1-yl)spiro[cyclohexane-1,1′-indene]-4-carboxylic acid], for which the Ki is 10.1 µM.

Turning to `CC1(C)[C@H]2C=C(C3=Cc4ccccc4[C@]34CC[C@@](Nc3cccc(Cl)c3)(C(=O)O)CC4)[C@]1(C)CC2` [Example 276, (1s,4S)-4-(3-chloroanilino)-2′-[(1R,4R)-1,7,7-trimethylbicyclo[2.2.1]hept-2-en-2-yl]spiro[cyclohexane-1,1′-indene]-4-carboxylic acid], the inhibitory constant (Ki) worked out at 36.7 µM. With `O=C(O)[C@]1(Nc2cccc(Cl)c2)CC[C@]2(CC1)C(C1=CCCC1)=Cc1ccccc12` [Example 277, (1r,4r)-4-(3-chloroanilino)-2′-(cyclopent-1-en-1-yl)spiro[cyclohexane-1,1′-indene]-4-carboxylic acid], the Ki turned out to be 6.09 µM. With `CC1(C)CCC=C1C1=Cc2ccccc2[C@]12CC[C@@](Nc1cccc(Cl)c1)(C(=O)O)CC2` [Example 278, (1s,4s)-4-(3-chloroanilino)-2′-(5,5-dimethylcyclopent-1-en-1-yl)spiro[cyclohexane-1,1′-indene]-4-carboxylic acid], the inhibition constant (Ki) came to 11.8 µM. For `COc1ccc(C2Cc3ccccc3C23CCC(Nc2cccc(Cl)c2)(C(=O)O)CC3)cc1Cl` (stereo not shown) [Example 279, (1r,4r)-4-(3-chloroanilino)-2′-(3-chloro-4-methoxyphenyl)-2′,3′-dihydrospiro[cyclohexane-1,1′-indene]-4-carboxylic acid] the value was 0.383 µM; for `O=C(O)[C@]1(Nc2cccc(Cl)c2)CC[C@@]2(CC1)c1ccccc1C[C@H]2c1ccc2occc2c1` [Example 281, (1r,2′S,4S)-2′-(1-benzofuran-5-yl)-4-(3-chloroanilino)-2′,3′-dihydrospiro[cyclohexane-1,1′-indene]-4-carboxylic acid], 0.473 µM; for `O=C(O)[C@]1(Nc2cccc(Cl)c2)CC[C@@]2(CC1)c1ccccc1C[C@@H]2c1ccc2occc2c1` [Example 282, (1r,2′R,4R)-2′-(1-benzofuran-5-yl)-4-(3-chloroanilino)-2′,3′-dihydrospiro[cyclohexane-1,1′-indene]-4-carboxylic acid], 5.13 µM.

With `Cc1ccc(C2=Cc3ccccc3[C@]23CC[C@@](Nc2cccc(Cl)c2)(C(=O)O)CC3)cc1` [Example 297, (1s,4s)-4-(3-chloroanilino)-2′-(4-methylphenyl)spiro[cyclohexane-1,1′-indene]-4-carboxylic acid], the Ki stood at 2.37 µM. Regarding `O=C(O)[C@]1(Nc2cccc(Cl)c2)CC[C@]2(CC1)C(c1ccc(Cl)cc1)=Cc1ccccc12` [Example 298, (1s,4s)-4-(3-chloroanilino)-2′-(4-chlorophenyl)spiro[cyclohexane-1,1′-indene]-4-carboxylic acid], the Ki stood at 1.11 µM. As to `COc1cccc(C2=Cc3ccccc3[C@]23CC[C@@](Nc2cccc(Cl)c2)(C(=O)O)CC3)c1C` [Example 299, (1s,4s)-4-(3-chloroanilino)-2′-(3-methoxy-2-methylphenyl)spiro[cyclohexane-1,1′-indene]-4-carboxylic acid], the inhibition constant (Ki) was 0.41 µM. As to `O=C(O)[C@]1(Nc2cccc(Cl)c2)CC[C@]2(CC1)C(c1cccc(Oc3ccccc3)c1)=Cc1ccccc12` [Example 300, (1s,4s)-4-(3-chloroanilino)-2′-(3-phenoxyphenyl)spiro[cyclohexane-1,1′-indene]-4-carboxylic acid], the Ki stood at 0.174 µM. As to `O=C(O)[C@]1(Nc2cccc(Cl)c2)CC[C@]2(CC1)C(c1cccc(Cc3ccccc3)c1)=Cc1ccccc12` [Example 301, (1s,4s)-2′-(3-benzylphenyl)-4-(3-chloroanilino)spiro[cyclohexane-1,1′-indene]-4-carboxylic acid], the Ki turned out to be 0.491 µM.

As for `O=C(O)[C@]1(Nc2cccc(Cl)c2)CC[C@]2(CC1)C(c1cccc(OCc3ccccc3)c1)=Cc1ccccc12` [Example 302, (1s,4s)-2′-[3-(benzyloxy)phenyl]-4-(3-chloroanilino)spiro[cyclohexane-1,1′-indene]-4-carboxylic acid], the Ki worked out at 1.51 µM. Consider `O=C(O)[C@]1(Nc2cccc(Cl)c2)CC[C@]2(CC1)C(c1cc3ccccc3o1)=Cc1ccccc12` [Example 303, (1s,4s)-2′-(1-benzofuran-2-yl)-4-(3-chloroanilino)spiro[cyclohexane-1,1′-indene]-4-carboxylic acid], for which the inhibitory constant (Ki) is 2.26 µM. With `O=C(O)[C@]1(Nc2cccc(Cl)c2)CC[C@]2(CC1)C(c1cccc(O)c1)=Cc1ccccc12` [Example 304, (1s,4s)-4-(3-chloroanilino)-2′-(3-hydroxyphenyl)spiro[cyclohexane-1,1′-indene]-4-carboxylic acid], the Ki was 1.74 µM. `O=C(O)[C@]1(Nc2cccc(Cl)c2)CC[C@]2(CC1)C(c1ccccc1)=Cc1ccccc12` [Example 305, (1s,4s)-4-(3-chloroanilino)-2′-phenylspiro[cyclohexane-1,1′-indene]-4-carboxylic acid]: the Ki amounted to 0.663 µM. In the case of `COc1cc(OC)cc(C2=Cc3ccccc3[C@]23CC[C@@](Nc2cccc(Cl)c2)(C(=O)O)CC3)c1` [Example 308, (1s,4s)-4-(3-chloroanilino)-2′-(3,5-dimethoxyphenyl)spiro[cyclohexane-1,1′-indene]-4-carboxylic acid], the Ki came to 2.93 µM. With `O=C(O)[C@]1(Nc2cccc(Cl)c2)CC[C@]2(CC1)C(c1ccc(OCc3ccccc3)cc1)=Cc1ccccc12` [Example 309, (1s,4s)-2′-[4-(benzyloxy)phenyl]-4-(3-chloroanilino)spiro[cyclohexane-1,1′-indene]-4-carboxylic acid] the figure was 0.732 µM; with `COc1cc(C)cc(C2=Cc3ccccc3[C@]23CC[C@@](Nc2cccc(Cl)c2)(C(=O)O)CC3)c1` [Example 310, (1s,4s)-4-(3-chloroanilino)-2′-(3-methoxy-5-methylphenyl)spiro[cyclohexane-1,1′-indene]-4-carboxylic acid], 0.721 µM.

On to `O=C(O)[C@]1(Nc2cccc(Cl)c2)CC[C@]2(CC1)C(c1ccccc1Cl)=Cc1ccccc12` [Example 311, (1s,4s)-4-(3-chloroanilino)-2′-(2-chlorophenyl)spiro[cyclohexane-1,1′-indene]-4-carboxylic acid], for which the Ki stood at 0.559 µM. As to `O=C(O)[C@]1(Nc2cccc(Cl)c2)CC[C@]2(CC1)C(c1cccc(C(F)(F)F)c1)=Cc1ccccc12` [Example 312, (1s,4s)-4-(3-chloroanilino)-2′-[3-(trifluoromethyl)phenyl]spiro[cyclohexane-1,1′-indene]-4-carboxylic acid], the Ki was found to be 0.839 µM.

For the compound `CCOc1cccc(C2=Cc3ccccc3[C@]23CC[C@@](Nc2cccc(Cl)c2)(C(=O)O)CC3)c1` [Example 313, (1s,4s)-4-(3-chloroanilino)-2′-(3-ethoxyphenyl)spiro[cyclohexane-1,1′-indene]-4-carboxylic acid], the Ki is 0.385 µM. For the compound `O=C(O)[C@]1(Nc2cccc(Cl)c2)CC[C@]2(CC1)C(c1cccc(OC(F)(F)F)c1)=Cc1ccccc12` [Example 314, (1s,4s)-4-(3-chloroanilino)-2′-[3-(trifluoromethoxy)phenyl]spiro[cyclohexane-1,1′-indene]-4-carboxylic acid], the inhibition constant Ki turned out to be 0.528 µM.
